From US20060069132A1, “Azolecarboxamide herbicides” (priority 2004, published 2006)

Experiments:
ducksalad [1] = assay: Test B flooded paddy test; format: in vivo, Heteranthera limosa; conditions: 1000 g ai/ha, scale 0 to 100 (0 no effect, 100 complete control)
How it was run: (§1)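 Paddy species grown to the 2-leaf stage under flooding; blackgrass sprayed postemergence at 2–18 cm (1- to 4-leaf stage). Plants kept in a greenhouse for 13 to 15 days, then visually rated against controls on 0 (no effect) to 100 (complete control).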

giant foxtail = assay: Test B pre-/postemergence herbicide test; format: in vivo, Setaria faberi; conditions: for Foxtail, Giant plant response rating: scale 0 (no effect) to 100 (complete control)
How it was run: (§2)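 Plants compared with untreated controls 13–15 days post-treatment and given a visual 0–100 injury score. Applications: preemergence to seeds; postemergence at 1- to 4-leaf (2–18 cm); paddy species flooded, 2-leaf stage. Vehicle non-phytotoxic, surfactant included.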

velvetleaf = assay: Test B pre-/postemergence herbicide test; format: in vivo, Abutilon theophrasti; conditions: for Velvetleaf plant response rating: scale 0 (no effect) to 100 (complete control)
How it was run: as §2

[2] = test system: smallflower umbrella sedge; assay: Test C flooded paddy test; format: in vivo, Cyperus difformis
barnyardgrass [3] = assay: Test B pre-/postemergence herbicide test; format: in vivo, Echinochloa crus-galli; conditions: for Barnyardgrass plant response rating: scale 0 (no effect) to 100 (complete control)
How it was run: (§3)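 Test chemicals in a non-phytotoxic solvent mixture with surfactant were applied preemergence to seeded species and postemergence to plants 2-18 cm tall (1- to 4-leaf stage); rice and barnyardgrass were also tested in a flooded paddy at the 2-leaf stage. Visual rating versus controls after 13-15 days in greenhouse, scale 0 (no effect) to 100 (complete control).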

pigweed = assay: Test B pre-/postemergence herbicide test; format: in vivo, Amaranthus retroflexus; conditions: for Pigweed plant response rating: scale 0 (no effect) to 100 (complete control)
How it was run: as §2

barnyardgrass [4] = assay: Test B flooded paddy test; format: in vivo, Echinochloa crus-galli; conditions: 1000 g ai/ha, scale 0 to 100 (0 no effect, 100 complete control)
How it was run: as §1

wheat = assay: Test B postemergence herbicide test; format: in vivo, Triticum aestivum; parameters: key to Wheat plant response rating: 0 = no effect, 100 = complete control
How it was run: (§4)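 Scale 0–100: zero equals no visible effect, 100 complete control, judged by eye relative to controls. Timing: 13 to 15 days in greenhouse post-treatment. Growth stage at spraying: two leaves (paddy) or one to four leaves, 2–18 cm (postemergence).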

cocklebur = assay: Test B pre-/postemergence herbicide test; format: in vivo, Xanthium strumarium; conditions: for Cocklebur plant response rating: scale 0 (no effect) to 100 (complete control)
How it was run: as §3

lambsquarters = assay: Test B pre-/postemergence herbicide test; format: in vivo, Chenopodium album; conditions: for Lambsquarters plant response rating: scale 0 (no effect) to 100 (complete control)
How it was run: as §2

barnyardgrass [5] = assay: Test C flooded paddy test; format: in vivo, Echinochloa crus-galli
How it was run: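 Scoring by eye, 12–14 days post-treatment, greenhouse-held plants vs. controls; 0 no effect, 100 complete control. Sprayed at 1–4 leaves (2–18 cm); paddy barnyardgrass at 2 leaves, flooded.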

Surinam grass = assay: Test B pre-/postemergence herbicide test; format: in vivo, Urochloa decumbens; conditions: for Surinam Grass plant response rating: scale 0 (no effect) to 100 (complete control)
How it was run: as §2

blackgrass = assay: Test B postemergence herbicide test; format: in vivo, Alopecurus myosuroides; conditions: scale 0 (no effect) to 100 (complete control)
How it was run: as §1

ducksalad [6] = assay: Test C flooded paddy test; format: in vivo, Heteranthera limosa
[7] = test system: small flower umbrella sedge; assay: Test B flooded paddy test; format: in vivo, Cyperus difformis; conditions: 1000 g ai/ha, scale 0 to 100 (0 no effect, 100 complete control)
How it was run: as §1

corn = assay: Test B pre-/postemergence herbicide test; format: in vivo, Zea mays; conditions: for Corn plant response rating: scale 0 (no effect) to 100 (complete control)
How it was run: as §2

wild oat = assay: Test B postemergence herbicide test; format: in vivo, Avena fatua; conditions: scale 0 (no effect) to 100 (complete control)
How it was run: as §4

rice [8] = assay: Test C flooded paddy test; format: in vivo, Oryza sativa
How it was run: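 Postemergence sprays applied to plants 2 to 18 cm tall (1- to 4-leaf stage); paddy species grown to 2-leaf stage under flooding. After 12 to 14 days in greenhouse, visual rating versus untreated controls on 0–100 scale (0 no effect, 100 complete control).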

large crabgrass = assay: Test B pre-/postemergence herbicide test; format: in vivo, Digitaria sanguinalis; conditions: for Crabgrass, Large plant response rating: scale 0 (no effect) to 100 (complete control)
How it was run: as §2

rice [9] = assay: Test B flooded paddy test; format: in vivo, Oryza sativa; conditions: 1000 g ai/ha, scale 0 to 100 (0 no effect, 100 complete control)
How it was run: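 Formulated test chemicals went onto postemergence plants measuring 2 to 18 cm, at one to four leaves. For the paddy assay, species had reached two leaves. Scoring took place 13–15 days later by eye, relative to untreated plants, using 0 for no effect up to 100 for full control.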

morningglory = assay: Test B pre-/postemergence herbicide test; format: in vivo, Ipomoea coccinea; conditions: for Morningglory plant response rating: scale 0 (no effect) to 100 (complete control)
How it was run: as §3

[10] = 125 g ai/ha, 0 is no effect, 100 is complete control, preemergence
[11] = 125 g ai/ha, visual rating, postemergence
[12] = 125 g ai/ha, scale 0 to 100 (0 no effect, 100 complete control)
[13] = 250 g ai/ha, scale of 0 to 100, 0 is no effect, 100 is complete control
[14] = 500 g ai/ha, visual rating after 12 to 14 days, scale 0 to 100 (0 no effect, 100 complete control)

In the case of `CCNC(=O)c1cccc(NC(=O)c2nn(C(C)C)nc2C)c1` [Compound 405], the “Ducksalad plant response rating” value (ducksalad [1]) is reported as 80, the “Plant response rating (0 to 100 scale), Foxtail, Giant” value (giant foxtail; [10]) is reported as 0 and the “Foxtail, Giant plant response rating” value (giant foxtail; [11]) is reported as 0. For the same molecule, the “Foxtail, Giant plant response rating” value (giant foxtail; Postemergence, 500 g ai/ha) was 20, the “Plant response rating (0 to 100 scale), Velvetleaf” value (velvetleaf; [10]) was 0 and the “Velvetleaf plant response rating” value (velvetleaf; [11]) was 10. The “Velvetleaf plant response rating” value (velvetleaf; Postemergence, 500 g ai/ha) was 30, the “Sedge, Umbrella plant response rating” value ([2]; 62 g ai/ha, scale 0 to 100) was 40 and the “Sedge, Umbrella plant response rating” value [2, 12] was 50. The “Sedge, Umbrella plant response rating” value [2, 13] was 70, the “Plant response rating, Sedge, Umbrella” value [2, 14] was 70 and the “Plant response rating (0 to 100 scale), Barnyardgrass” value (barnyardgrass [3]; [10]) was 10. The “Barnyardgrass plant response rating” value (barnyardgrass [3]; [11]) was 10, the “Barnyardgrass plant response rating” value (barnyardgrass [3]; Postemergence, 500 g ai/ha) was 10 and the “Plant response rating (0 to 100 scale), Pigweed” value (pigweed; [10]) was 10. For the same molecule, the “Pigweed plant response rating” value (pigweed; [11]) was 30, the “Pigweed plant response rating” value (pigweed; Postemergence, 500 g ai/ha) was 50 and the “Barnyardgrass plant response rating” value (barnyardgrass [4]) was 40. The “Wheat plant response rating” value (wheat; 125 g ai/ha, visual rating, scale 0 (no effect) to 100 (complete control), postemergence) was 0, the “Wheat plant response rating” value (wheat; 500 g ai/ha, scale 0 to 100, 0 no effect, 100 complete control, preemergence) was 20 and the “Wheat plant response rating” value (wheat; Postemergence, 500 g ai/ha, scale 0 (no effect) to 100 (complete control)) was 0. For the same molecule, the “Plant response rating (0 to 100 scale), Cocklebur” value (cocklebur; [10]) was 0, the “Cocklebur plant response rating” value (cocklebur; [11]) was 10 and the “Cocklebur plant response rating” value (cocklebur; Postemergence, 500 g ai/ha) was 20. The “Plant response rating (0 to 100 scale), Lambsquarters” value (lambsquarters; [10]) was 70, the “Lambsquarters plant response rating” value (lambsquarters; [11]) was 50 and the “Lambsquarters plant response rating” value (lambsquarters; Postemergence, 500 g ai/ha) was 70. The “Barnyardgrass plant response rating” value (barnyardgrass [5]; 62 g ai/ha, scale 0 to 100 (0 no effect, 100 complete control)) was 0, the “Barnyardgrass plant response rating” value (barnyardgrass [5]; [12]) was 0 and the “Barnyardgrass plant response rating” value (barnyardgrass [5]; [13]) was 0. For the same molecule, the “Plant response rating, Barnyardgrass” value (barnyardgrass [5]; [14]) was 20, the “Plant response rating (0 to 100 scale), Surinam Grass” value (Surinam grass; [10]) was 0 and the “Surinam Grass plant response rating” value (Surinam grass; [11]) was 0. For the same molecule, the “Surinam Grass plant response rating” value (Surinam grass; Postemergence, 500 g ai/ha) was 10, the “Blackgrass plant response rating” value (blackgrass; [11]) was 0 and the “Blackgrass plant response rating” value (blackgrass; Postemergence, 500 g ai/ha) was 10. The “Ducksalad plant response rating” value (ducksalad [6]; 62 g ai/ha, scale 0 to 100) was 0, the “Ducksalad plant response rating” value (ducksalad [6]; [12]) was 0 and the “Ducksalad plant response rating” value (ducksalad [6]; [13]) was 20. The “Plant response rating, Ducksalad” value (ducksalad [6]; [14]) was 30, the “Sedge, Umbrella plant response rating” value [7] was 90 and the “Plant response rating (0 to 100 scale), Corn” value (corn; [10]) was 0. For the same molecule, the “Corn plant response rating” value (corn; [11]) was 10, the “Corn plant response rating” value (corn; Postemergence, 500 g ai/ha) was 10 and the “Oat, Wild plant response rating” value (wild oat; [11]) was 0. The “Oat, Wild plant response rating” value (wild oat; Postemergence, 500 g ai/ha) was 10, the “Rice plant response rating” value (rice [8]; 62 g ai/ha, scale 0 to 100) was 0 and the “Rice plant response rating” value (rice [8]; [12]) was 0. The “Rice plant response rating” value (rice [8]; [13]) was 0, the “Plant response rating, Rice” value (rice [8]; [14]) was 20 and the “Plant response rating (0 to 100 scale), Crabgrass, Large” value (large crabgrass; [10]) was 30. The “Crabgrass, Large plant response rating” value (large crabgrass; [11]) was 10, the “Crabgrass, Large plant response rating” value (large crabgrass; Postemergence, 500 g ai/ha) was 20 and the “Rice plant response rating” value (rice [9]) was 50. For the same molecule, the “Plant response rating (0 to 100 scale), Morningglory” value (morningglory; [10]) was 30, the “Morningglory plant response rating” value (morningglory; [11]) was 20 and the “Morningglory plant response rating” value (morningglory; Postemergence, 500 g ai/ha) was 60.
